From patent US20180311191A1, “NEW COMBINATION THERAPIES FOR TREATING NEUROLOGICAL DAMAGE” (UNIVERSITAT AUTONOMA DE BARCELONA, priority 2015, published 2018)
Where two headings read alike, the source gives them in different places.

Tests used:
[1] = test system: NSC-34 motoneuron-like cells; assay: MTT cell survival assay of NSC-34 motoneuron-like cells under tunicamycin-induced ER stress; format: cell-based, mouse; details: for MTT assay (% sample vs control), Mean: concomitant TN 1 μg/mL, 24 h, C1 = 0.11 mM acamprosate calcium + 4 μM ribavirin, single drugs 0.11 mM acamprosate calcium, 4 μM ribavirin, 10 μM PRE084; for Corrected Response (Response less control 62.956%) / Response (% neuronal cell survival after ER stress): tunicamycin, MTT
Protocol: For the in vitro studies, we assessed cell survival of the NSC-34 motoneuron-like cells with a conventional MTT-based assay. NSC-34 is a hybrid cell line produced by fusion of neuroblastoma with mouse motoneuron-enriched primary spinal cord cells, which express properties characteristic of MNs, including the generation of action potentials, the presence of specific neurofilaments and acetylcholine signaling. […] Tunicamycin is a power that was dissolved in DMSO to 10 mg/ml final concentration and then diluted in Dulbeco's modified eagle medium (DMEM) medium at the final working solution indicated in figure legends. The rest of drugs, C1, Acamprosate calcium and Ribavirin were dissolved in water and then in DMEM medium at the final working solutions: 0.11 mM Acamprosate calcium (ACA), 4 μM Ribavirin (RIB) alone or in C1, at a final volume of 100 μI for MTT assays.
We assessed the neuroprotective effect of C1 (acamprosate calcium 0.11 mM+ribavirin 4 μM in 100 μl final volume) when added simultaneous to tunicamycin (TN) in the culture medium. We evaluated cell survival 24 h after the addition of toxin and therapeutic drugs performing an MTT conventional test.
In order to analyze the existence of possible additive neuroprotective effect between drugs, we determined the dose-effect relations of each individual drug (Acamprosate calcium 0.11 mM or Ribavirin 4 μM, both in 100 μI final volume) compared to equivalent doses for C1 (acamprosate calcium 0.11 mM+ribavirin 4 μM in 100 μI final volume).

motoneurons (MNs) [2] = details: cited from earlier work
motoneurons (MNs) [3] = assay: Rat model of peripheral nerve root avulsion (RA model): MN counts and immunohistochemistry at L4-L5 spinal cord; format: in vivo; details: for effect on the neuroprotective effect (MN survival) exerted by C1: RA-injured animals treated with C1 concomitantly
Description: For in vivo studies, a pre-clinical rat model of peripheral nerve root avulsion (RA model) was generated as previously described (see Penas C Cytoskeletal and activity-related changes in spinal motoneurons after root avulsion. Journal of Neurotrauma, 2009). Briefly, a midline skin incision was made at the level of the iliac crest, the right sciatic nerve was identified and the L4 and L5 spinal nerves were separated. A moderate traction was applied to produce extravertebral nerve root avulsion, leading to a retrograde degeneration of around 80% of the injured MNs within a month. The left roots were kept intact as control sham. We intratechally administered the vehicle (artificial cerebrospinal fluid (aCSF) [NaCl (124 mM), KCl (3 mM), NaHCO3 (26 mM), CaCl2/2H2O (2 mM), MgSO4/7H2O (1 mM), KH2PO4 (1.25 mM) and D-Glucose (10 mM)] or the positive control drug for neuroprotection (PRE084, 1-phenylcyclohexanecarboxylate hydrochloride, 1.7 μg/kg/day), C1 (Acamprosate calcium 96 μg/Kg/day (equivalent to 86.9 μg/Kg/day acamprosate free acid)+Ribavirin 0.48 μg/Kg/day) or acamprosate calcium (96 μg/Kg/day) (equivalent to 86.9 μg/Kg/day acamprosate free acid) alone and ribavirin (0.48 μg/Kg/day) alone. For this purpose, we used a programmable micro-infusion pump system (iPrecio, Primetech) to continuously perfuse the drugs into the animal CSF during 20 days from the following day after RA. […] experimental animal groups with RA were defined: one was treated with C1, another was treated with Pre084 (positive control), another was treated with Acamprosate calcium alone (A), another was treated with Ribavirin alone (B), another was treated with vehicle alone, another was left untreated (control). […] Images from microscope were digitally captured and analyzed using several plugins of the ImageJ Software.

[4] = ribavirin alone, Dose DB 0.1X (1X = 4 μM)
[5] = ribavirin alone, Dose DB 0.2X (1X = 4 μM)
[6] = ribavirin alone, Dose DB 0.5X (1X = 4 μM)
[7] = ribavirin alone, Dose DB 1X (4 μM)
[8] = acamprosate calcium alone, Dose DA 0.1X (1X = 0.11 mM)
[9] = acamprosate calcium alone, Dose DA 0.2X (1X = 0.11 mM)
[10] = acamprosate calcium alone, Dose DA 0.5X (1X = 0.11 mM)
[11] = acamprosate calcium alone, Dose DA 1X (0.11 mM)

SMILES: NC(=O)c1ncn([C@@H]2O[C@H](CO)[C@@H](O)[C@H]2O)n1 [ribavirin, 1-[(2R,3R,4S,5R)-3,4-dihydroxy-5-(hydroxymethyl)oxolan-2-yl]-1H-1,2,4-triazole-3-carboxamide]
- MTT assay (% sample vs control), Mean ([1]; NSC-34 cells): 68.07%
- Corrected Response (Response less control 62.956%) [1, 4]: 5.71%
- Response (% neuronal cell survival after ER stress) [1, 4]: 68.662%
- Corrected Response (Response less control 62.956%) [1, 5]: 7.93%
- Response (% neuronal cell survival after ER stress) [1, 5]: 70.886%
- Corrected Response (Response less control 62.956%) [1, 6]: 2.72%
- Response (% neuronal cell survival after ER stress) [1, 6]: 65.676%
- Corrected Response (Response less control 62.956%) [1, 7]: 5.69%
- Response (% neuronal cell survival after ER stress) [1, 7]: 68.647%

SMILES: Nc1nc2ccc(OC(F)(F)F)cc2s1 [riluzole]
- neuroprotective effect (motoneurons (MNs) [2]; model of spinal root avulsion with reimplantation): maximum observed effect of neuroprotection
- neuroprotective effect (motoneurons (MNs) [2]; models of root avulsion without reimplantation (Chew 2014)): no neuroprotective effect

SMILES: NCCCCNCCCN [spermidine]
- effect on the neuroprotective effect (MN survival) exerted by C1 (motoneurons (MNs) [3]): did maintain it

SMILES: O=C(OCCN1CCOCC1)C1(c2ccccc2)CCCCC1 [PRE084, 2-(4-Morpholinethyl)1 Phenylcyclohexanecarboxylate]
- neuroprotection against TN stress compared with C1 ([1]; NSC-34 cells, TN 1 μg/mL, 10 μM PRE084, MTT): did not neuroprotect the cells as efficiently as C1
- MTT assay (% sample vs control), Mean ([1]; NSC-34 cells): 68.81%
- MN survival compared to the vehicle group (motoneurons (MNs) [3]; root avulsed rats, intrathecal infusion 20 days, 21 days post-injury, C1 = 96 μg/Kg/day acamprosate calcium + 0.48 μg/Kg/day ribavirin, PRE084 1.7 μg/kg/day): significantly different to the vehicle group
- induction of MN survival (motoneurons (MNs) [2]; spinal root avulsion (Penas et al. 2011)): 50-60%

SMILES: NC(=O)C1CCCc2c1[nH]c1ccc(Cl)cc21 (centres unmarked) [EX-527, 6-chloro-2,3,4,9-tetrahydro-1H-carbazole-1-carboxamide]
- effect on the neuroprotective effect (MN survival) exerted by C1 (motoneurons (MNs) [3]): abolished the neuroprotective effect

SMILES: CC(=O)NCCCS(=O)(=O)O [acamprosate calcium, 3-acetamidopropane-1-sulfonic acid]
- MTT assay (% sample vs control), Mean ([1]; NSC-34 cells): 65.80%
- Corrected Response (Response less control 62.956%) [1, 8]: 3.52%
- Response (% neuronal cell survival after ER stress) [1, 8]: 66.475%
- Corrected Response (Response less control 62.956%) [1, 9]: 2.96%
- Response (% neuronal cell survival after ER stress) [1, 9]: 65.918%
- Corrected Response (Response less control 62.956%) [1, 10]: 3.89%
- Response (% neuronal cell survival after ER stress) [1, 10]: 66.849%
- Corrected Response (Response less control 62.956%) [1, 11]: 2.46%
- Response (% neuronal cell survival after ER stress) [1, 11]: 65.417%
